We go through 13 compounds from ChEMBL document CHEMBL1130449, “Potent novel nonsteroidal androgen antagonists with a phthalimide skeleton” (1997).

Assay [1] deals with HL-60. Nature of the assay: Production of TNF-alpha by HL-60 cells in the presence of 50 nM okadaic acid with 300 nM test compound.
A further assay deals with SC-3. Nature of the assay: Growth inhibition of androgen-dependent clonal cell line SC-3, derived from Shionogi carcinoma 115. The assay is classed as functional, Mus musculus. Set-up: unit not given here.
Assay [2] deals with HL-60. Nature of the assay: Production of TNF-alpha in HL-60 cells in the presence of 50 nM okadaic acid with 30 uM test compound.

On to `C[C@@H](c1ccccc1)N1C(=O)c2c(F)c(F)c(F)c(F)c2C1=O`, for which, in the assay on HL-60 [1], the Production was 2%. Also, in the assay with SC-3, the No. of cells was 16.
On the same counts, the results for `C[C@H](c1ccccc1)N1C(=O)c2c(F)c(F)c(F)c(F)c2C1=O` are 70% and 3.
For the compound `O=C1c2c(F)c(F)c(F)c(F)c2C(=O)N1CC1Cc2ccccc2C1`, in the assay with HL-60 [1], the Production is given as 43%. The same compound had a No. of cells in the assay on SC-3 of 61.
Consider `C[C@H](C1CCCCC1)N1C(=O)c2c(F)c(F)c(F)c(F)c2C1=O`, for which, in the assay on HL-60 [1], the Production was 65%. In the assay with SC-3, this compound showed a No. of cells of 5.
For the compound `C[C@@H](c1cccc2ccccc12)N1C(=O)c2c(F)c(F)c(F)c(F)c2C1=O`, the Production in the assay on HL-60 [1] was 2%. For the same compound, in the assay with SC-3, the No. of cells is recorded as 9.
With `O=C1c2ccccc2C(=O)N1CC1Cc2ccccc2C1`, the Production with HL-60 [2] is reported as 50%. This compound also had a No. of cells in the assay on SC-3 of 56.
Regarding `CC(=O)C(CN1C(=O)c2ccccc2C1=O)C(C)=O`, in the assay on HL-60 [2], the Production was 72%. This compound also gave a No. of cells in the assay with SC-3 of 49.
Take `O=C1c2ccccc2C(=O)N1Cc1c(Cl)cccc1Cl`: the Production in the assay on HL-60 [2] is recorded as 39%. This compound displayed a No. of cells in the assay on SC-3 of 69.
Take `C[C@H](c1cccc2ccccc12)N1C(=O)c2c(F)c(F)c(F)c(F)c2C1=O`: the Production with HL-60 [1] was 101%. Moreover, the No. of cells with SC-3 came out at 14.
Consider `C[C@@H](C1CCCCC1)N1C(=O)c2c(F)c(F)c(F)c(F)c2C1=O`, for which the Production in the assay with HL-60 [1] was 10%. The compound also returned a No. of cells in the assay on SC-3 of 2.
Consider `O=C1c2c(F)c(F)c(F)c(F)c2C(=O)N1Cc1c(Cl)cccc1Cl`, for which the Production with HL-60 [1] is on record as 76%. The No. of cells with SC-3 worked out at 45.
As for `O=C1c2ccccc2C(=O)N1CNc1ccccc1`, the Production in the assay on HL-60 [2] was 73%. This compound also had a No. of cells in the assay with SC-3 of 91.
The matching figures for `CC(C)C(=O)Nc1ccc([N+](=O)[O-])c(C(F)(F)F)c1` [FLUTAMIDE]: 103% and 66.
